Columns and labels:
[1] = biological target: T1, Recombinant human CD38 (Homo sapiens, UniProt P28907); assay: Human CD38 hydrolase assay (fluorescence-based, ε-NAD substrate); assay type: biochemical; details: recombinant human CD38 0.8 nM, 4 μM ε-NAD, 30 min preincubation at 25° C.
T1 sequence (P28907 1-300): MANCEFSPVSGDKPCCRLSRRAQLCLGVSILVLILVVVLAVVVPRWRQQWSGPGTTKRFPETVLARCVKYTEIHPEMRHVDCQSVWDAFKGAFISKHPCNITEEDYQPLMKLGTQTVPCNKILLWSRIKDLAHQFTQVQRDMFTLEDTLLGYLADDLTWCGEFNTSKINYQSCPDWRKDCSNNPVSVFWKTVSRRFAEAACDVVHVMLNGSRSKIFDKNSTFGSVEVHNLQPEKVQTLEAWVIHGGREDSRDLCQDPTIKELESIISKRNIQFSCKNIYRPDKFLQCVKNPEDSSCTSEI
Protocol: The ability of test compounds to inhibit human CD38 hydrolase activity was measured in a fluorescence-based assay using non-physiological NAD^+ substrate analogue 1,N^6-etheno NAD^+ (ε-NAD). Recombinant human CD38 (0.8 nM) was preincubated with test compounds in 384-well black microplates for 30 min at 25° C. in PBS (—Ca^2+/Mg^2+) containing 0.005% BSA (pH 7.4). CD38 hydrolase activity was initiated by addition of 4 μM ε-NAD, which yields the fluorescent product 1,N^6-etheno ADP-ribose. Formation of fluorescent product was followed using ClarioStar Plus (BMG) microplate reader by reading fluorescence (excitation λ=300 nm; emission λ=410 nm) at two time points, one immediately after substrate addition (t=0) and one at 10 min (t=10). Data was analysed by subtracting the values detected at t=0 from t=10 to correct for variation in baseline fluorescence. Fluorescence values were converted to percent inhibition using the average of high signal (CD38 and ε-NAD) and low signal (CD38 and ε-NAD in the presence of a tool CD38 inhibitor) control wells. IC50 values were determined from a 10-point, half log concentration response curve with a four-parameter logistic equation.

[2] = biological target: T2, Recombinant mouse CD38 (Mus musculus, UniProt P56528); assay: Mouse CD38 hydrolase assay (fluorescence-based, ε-NAD substrate); assay type: biochemical; details: recombinant mouse CD38 0.4 nM, 12 μM ε-NAD, 30 min preincubation at 25° C.
T2 sequence (P56528 1-304): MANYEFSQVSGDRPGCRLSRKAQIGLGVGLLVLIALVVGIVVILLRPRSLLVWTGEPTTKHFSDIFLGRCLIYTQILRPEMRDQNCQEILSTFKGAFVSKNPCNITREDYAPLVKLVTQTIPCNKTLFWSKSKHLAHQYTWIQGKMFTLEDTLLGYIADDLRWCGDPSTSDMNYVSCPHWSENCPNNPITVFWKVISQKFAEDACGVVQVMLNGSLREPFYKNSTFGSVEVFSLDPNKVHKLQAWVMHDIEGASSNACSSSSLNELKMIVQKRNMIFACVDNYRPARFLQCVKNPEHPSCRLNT
Protocol: The ability of test compounds to inhibit mouse CD38 hydrolase activity was measured in a fluorescence-based assay using non-physiological NAD^+ substrate analogue 1,N^6-etheno NAD^+ (&-NAD). Recombinant mouse CD38 (0.4 nM) was preincubated with test compounds in 384-well black microplates for 30 min at 25° C. in PBS (—Ca^2+/Mg^2+) containing 0.005% BSA (pH 7.4). CD38 hydrolase activity was initiated by addition of 12 μM ε-NAD, which yields the fluorescent product 1,N^6-etheno ADP-ribose. Formation of fluorescent product was followed using ClarioStar Plus (BMG) microplate reader by reading fluorescence (excitation λ=300 nm; emission λ=410 nm) at two time points, one immediately after substrate addition (t=0) and one at 6 min (t=6).
Data was analysed by subtracting the values detected at t=0 from t=6 to correct for variation in baseline fluorescence. Fluorescence values were converted to percent inhibition using the average of high signal (CD38 and ε-NAD) and low signal (CD38 and ε-NAD in the presence of a tool CD38 inhibitor) control wells. IC50 values were determined from a 10-point, halflog concentration response curve with a four-parameter logistic equation.

| IC50 [1] [µM] | IC50 [2] [µM] | Structure (SMILES) |
| --- | --- | --- |
| ≤ 0.04 | ≤ 0.04 | O=C(N[C@H]1CC[C@H](N2CC[C@@H](O)C2)CC1)c1nc(-n2ccnc2)nn2cccc12 [Example 27, N-((1R,4r)-4-((R)-3-hydroxypyrrolidin-1-yl)cyclohexyl)-2-(1H-imidazol-1-yl)pyrrolo[2,1-f][1,2,4]triazine-4-carboxamide] |
| ≤ 10 | ≤ 0.04 | O=C(N[C@H]1CC[C@H](N2CC[C@@H](F)C2)CC1)c1nc(-n2ccnc2)c2cccn2n1 [Example 28, N-((1R,4r)-4-((R)-3-fluoropyrrolidin-1-yl)cyclohexyl)-4-(1H-imidazol-1-yl)pyrrolo[2,1-f][1,2,4]triazine-2-carboxamide] |
| ≤ 0.1 | ≤ 0.04 | O=C(N[C@H]1CC[C@H](NCC(F)(F)F)CC1)c1nc(-c2cncs2)nn2cccc12 [Example 30, 2-(thiazol-5-yl)-N-((1r,4r)-4-((2,2,2-trifluoroethyl)amino)cyclohexyl)pyrrolo[2,1-f][1,2,4]triazine-4-carboxamide] |
| ≤ 0.04 | ≤ 0.04 | O=C(N[C@H]1CC[C@H](NCC(F)F)CC1)c1nc(-n2ccnc2)nn2cccc12 [Example 31, N-((1r,4r)-4-((2,2-difluoroethyl)amino)cyclohexyl)-2-(1H-imidazol-1-yl)pyrrolo[2,1-f][1,2,4]triazine-4-carboxamide] |
| ≤ 0.1 | ≤ 0.04 | O=C(N[C@H]1CC[C@H](N2CC[C@H](F)C2)CC1)c1nc(-n2ccnc2)nc2ncccc12 [Example 32, N-((1S,4r)-4-((S)-3-fluoropyrrolidin-1-yl)cyclohexyl)-2-(1H-imidazol-1-yl)pyrido[2,3-d]pyrimidine-4-carboxamide] |
| ≤ 0.1 | ≤ 0.04 | O=C(N[C@H]1CC[C@H](N2CC[C@@H](F)C2)CC1)c1cn2nccc2c(-n2ccnc2)n1 [Example 35, N-((1R,4r)-4-((R)-3-fluoropyrrolidin-1-yl)cyclohexyl)-4-(1H-imidazol-1-yl)pyrazolo[1,5-a]pyrazine-6-carboxamide] |
| ≤ 0.1 | ≤ 0.04 | O=C(N[C@H]1CC[C@H](N2CC[C@H](F)C2)CC1)c1cn2nccc2c(-n2ccnc2)n1 [Example 36, N-((1S,4r)-4-((S)-3-fluoropyrrolidin-1-yl)cyclohexyl)-4-(1H-imidazol-1-yl)pyrazolo[1,5-a]pyrazine-6-carboxamide] |
| ≤ 0.1 | ≤ 0.04 | O=C(N[C@H]1CC[C@H](NCC(F)F)CC1)c1cn2nccc2c(-n2ccnc2)n1 [Example 37, N-((1r,4r)-4-((2,2-difluoroethyl)amino)cyclohexyl)-4-(1H-imidazol-1-yl)pyrazolo[1,5-a]pyrazine-6-carboxamide] |
| ≤ 1 | ≤ 0.04 | O=C(N[C@H]1CC[C@H](NCC(F)F)CC1)c1cn2ccnc2c(-n2ccnc2)n1 [Example 38, N-((1r,4r)-4-((2,2-difluoroethyl)amino)cyclohexyl)-8-(1H-imidazol-1-yl) imidazo[1,2-a]pyrazine-6-carboxamide] |
| ≤ 0.1 | ≤ 0.04 | O=C(N[C@H]1CC[C@H](N2CC[C@@H](F)C2)CC1)c1cn2ccnc2c(-n2ccnc2)n1 [Example 39, N-((1R,4r)-4-((R)-3-fluoropyrrolidin-1-yl)cyclohexyl)-8-(1H-imidazol-1-yl) imidazo[1,2-a]pyrazine-6-carboxamide] |
| ≤ 1 | ≤ 0.04 | O=C(N[C@H]1CC[C@H](N2CC[C@H](F)C2)CC1)c1cn2ccnc2c(-n2ccnc2)n1 [Example 40, N-((1S,4r)-4-((S)-3-fluoropyrrolidin-1-yl)cyclohexyl)-8-(1H-imidazol-1-yl) imidazo[1,2-a]pyrazine-6-carboxamide] |
| ≤ 0.04 | ≤ 0.04 | Cc1cncn1-c1nc(C(=O)N[C@H]2CC[C@H](NCC(F)(F)F)CC2)c2cccn2n1 [Example 42, 2-(5-methyl-1H-imidazol-1-yl)-N-((1r,4r)-4-((2,2,2-trifluoroethyl)amino)cyclohexyl)pyrrolo[2,1-f][1,2,4]triazine-4-carboxamide] |
| ≤ 1 | ≤ 0.04 | O=C(N[C@H]1CC[C@@H](N2CCCC2)CC1)c1nc(-n2ccnc2)nn2cccc12 [Example 44, 2-(1H-imidazol-1-yl)-N-((1s,4s)-4-(pyrrolidin-1-yl)cyclohexyl)pyrrolo[2,1-f][1,2,4]triazine-4-carboxamide] |
| ≤ 0.1 | ≤ 0.04 | CC1(F)CN([C@H]2CC[C@H](NC(=O)c3cn4ncnc4c(-n4ccnc4)n3)CC2)C1 [Example 46, N-((1r,4r)-4-(3-fluoro-3-methylazetidin-1-yl)cyclohexyl)-8-(1H-imidazol-1-yl)-[1,2,4]triazolo[1,5-a]pyrazine-6-carboxamide] |
| ≤ 0.1 | ≤ 0.04 | CN(CC(F)(F)F)[C@H]1CC[C@H](NC(=O)c2cn3ncnc3c(-n3ccnc3)n2)CC1 [Example 47, 8-(1H-imidazol-1-yl)-N-((1r,4r)-4-(methyl (2,2,2-trifluoroethyl)amino)cyclohexyl)-[1,2,4]triazolo[1,5-a]pyrazine-6-carboxamide] |
| ≤ 1 | ≤ 0.1 | O=C(NC1CCN(CC(F)(F)F)CC1)c1cn2ncnc2c(-n2ccnc2)n1 [Example 50, 8-(1H-imidazol-1-yl)-N-(1-(2,2,2-trifluoroethyl)piperidin-4-yl)-[1,2,4]triazolo[1,5-a]pyrazine-6-carboxamide] |
| ≤ 1 | ≤ 0.04 | O=C(N[C@H]1CC[C@H](N2CCS(=O)(=O)CC2)CC1)c1cn2ncnc2c(-n2ccnc2)n1 [Example 51, N-((1r,4r)-4-(1,1-dioxidothiomorpholino)cyclohexyl)-8-(1H-imidazol-1-yl)-[1,2,4]triazolo[1,5-a]pyrazine-6-carboxamide] |
| ≤ 0.1 | ≤ 0.04 | O=C(N[C@H]1CC[C@H](NCC(F)F)CC1)c1cn2ncnc2c(-n2ccnc2)n1 [Example 52, N-((1r,4r)-4-((2,2-difluoroethyl)amino)cyclohexyl)-8-(1H-imidazol-1-yl)-[1,2,4]triazolo[1,5-a]pyrazine-6-carboxamide] |
| ≤ 1 | ≤ 0.04 | CC(C)(N[C@H]1CC[C@H](NC(=O)c2cn3ncnc3c(-n3ccnc3)n2)CC1)C(F)(F)F [Example 53, 8-(1H-imidazol-1-yl)-N-((1r,4r)-4-((1,1,1-trifluoro-2-methylpropan-2-yl)amino)cyclohexyl)-[1,2,4]triazolo[1,5-a]pyrazine-6-carboxamide] |
| ≤ 1 | ≤ 0.04 | CO[C@@H]1CCN([C@H]2CC[C@@H](NC(=O)c3cn4ncnc4c(-n4ccnc4)n3)CC2)C1 [Example 54, 8-(1H-imidazol-1-yl)-N-((1S,4s)-4-((R)-3-methoxypyrrolidin-1-yl)cyclohexyl)-[1,2,4]triazolo[1,5-a]pyrazine-6-carboxamide] |
| ≤ 1 | ≤ 0.04 | O=C(N[C@H]1CC[C@@H](N2CCSCC2)CC1)c1cn2ncnc2c(-n2ccnc2)n1 [Example 55, 8-(1H-imidazol-1-yl)-N-((1s,4s)-4-thiomorpholinocyclohexyl)-[1,2,4]triazolo[1,5-a]pyrazine-6-carboxamide] |
| ≤ 0.1 | ≤ 0.04 | O=C(N[C@H]1CC[C@H](N2CC(C(F)(F)F)C2)CC1)c1cn2ncnc2c(-n2ccnc2)n1 [Example 56, 8-(1H-imidazol-1-yl)-N-((1r,4r)-4-(3-(trifluoromethyl)azetidin-1-yl)cyclohexyl)-[1,2,4]triazolo[1,5-a]pyrazine-6-carboxamide] |

— patent US20260224582A1, “Heterobicyclic amides as inhibitors of CD38” (Cerevance, Inc., priority 2022, published 2026)
